Patent US20230097992A1, “BIVALENT EGF FUSION TOXINS” (The Regents of the University of Colorado, a body corporate, priority 2020, published 2023)

Key:
[1] = tested on: human EGFR-positive HNSCC cell line UMSCC1; assay: CellTiter-Glo Luminescent Cell Viability Assay, UMSCC1; type: cell-based; conditions: UMSCC1, read-out: IC50 to HNSCC cell lines (Erlotinib)
Protocol: (§1) FIG. 9 presents the data from in vitro efficacy analysis of the human EGF fusion toxins against human EGFR-positive HNSCC cell lines using CellTiter-Glo® Luminescent Cell Viability Assay (Promega) Y-axis: inhibition rate of the cell viability by determining the number of viable cells based on the quantification of the ATP present. X-axis: plated fusion toxin concentration. Cycloheximide (1.25 mg/mL) was used as a positive control. The negative control contained cells without fusion toxin. Data were from three individual experiments for each HNSCC cell line. Error bars indicate SD.
(§2) Y-axis: inhibition rate of the cell viability by determining the number of viable cells based on the quantification of the ATP present. […] Cycloheximide (1.25 mg/mL) was used as a positive control. […]
(§3) In vitro efficacy analysis of the human EGF fusion toxins (mEGF-IT and bEGF-IT) to the human HNSCC tumor cell lines was performed using CellTiter-Glo® Luminescent Cell Viability Assay (Promega Corporation, Madison, Wis.) as described previously (Zheng et al. (2017), Mol. Oncol. 11, 584-594, which is hereby incorporated by reference in its entirety). This cell viability assay measures the luminescence produced because of ATP production from metabolically active cells. […] The luminescence signals were recorded using BioTek Synergy LX Multi-Mode Reader.
(§4) IC50 was determined using nonlinear regression (curve fit) of Prism. […]

[2] = tested on: human EGFR-positive HNSCC cell line UMSCC22B; assay: CellTiter-Glo Luminescent Cell Viability Assay, UMSCC22B; type: cell-based; conditions: read-out: IC50 to HNSCC cell lines (Erlotinib)
Protocol: as §1, §2, §3, §4

[3] = tested on: human EGFR-positive HNSCC cell line UMSCC47; assay: CellTiter-Glo Luminescent Cell Viability Assay, UMSCC47; type: cell-based; conditions: read-out: IC50 to HNSCC cell lines (Erlotinib)
Protocol: as §1, §2, §3, §4

[4] = tested on: HNSCC Cal27 subcutaneous xenografts; assay: Flank-xenograft solid tumor-bearing NSG mouse model; type: in vivo, NSG mice; conditions: for Median survival time: Subcutaneous xenograft model, fusion toxin or DT390 50 μg/kg IP, erlotinib 20 mg/kg gavage, once daily for 10 days from day 4
Excerpt: FIGS. 6A-6D presents the data from in vivo efficacy analysis of the human EGF fusion toxins against subcutaneous xenografts in NSG mice from two animal studies. FIG. 6A depicts the survival curve for NSG mice injected with Cal27 cells. […] FIGS. 6B-D depict tumor volume and weight data from the second study performed with a second cohort of NSG mice. […] Mice were euthanized on day 14 after tumor cell injection, when the first mouse in the DT390 group reached the end point. FIG. 6B: Tumor volumes were measured periodically, and the growth kinetics of the four groups were plotted. FIG. 6B depicts the tumor growth kinetics for a period of 14 days. FIG. 6C presents a bar graph representing the tumor weights at day 14. FIG. 6D depicts images of harvested tumors on day 14. Scale bar: 1 cm. FIGS. 6A-6C: *P<0.05; **P<0.01; ***P<0.001; ****P<0.0001; ns: not significant. The P-values for the survival curves in FIG. 6A were calculated using the Mantel-Cox log-rank test and that for the comparisons in FIGS. 6B and C were calculated using the two-tailed Student t-test (GraphPad Prism 9.0.0).
HNSCC tumor cells were injected via the following routes: 1) Flank-xenograft solid tumor model: eight million human HNSCC Cal27 tumor cells were subcutaneously injected into the right flank at day 0. The tumor-bearing mice were randomly divided into the four experimental groups when the tumors were palpable at day 3. The tumor volume was measured using digital vernier calipers every 3 days and calculated according to the formula: volume (mm^3)=(length×width×width)/2. 2) Tongue-orthotopic solid tumor model: eight million human HNSCC Cal27 tumor cells in 50 μl DMEM were injected into the tongue at day 0 following isoflurane anesthesia and the tumor-bearing mice were randomly divided into the planned four experimental groups at day 3. 3) Experimental metastasis model: one million human HNSCC Cal27 tumor cells in 200 μl DMEM were intravenously injected at day 0 via tail vein and the tumor-bearing mice were randomly divided into the four experimental groups at day 3.
Mono-EGF-IT (mEGF-IT), bEGF-IT, or DT390 was intraperitoneally injected (IP) starting at day 4 at 50 μg/kg, once daily for 10 consecutive days. […] The injected animals were observed daily for signs and symptoms of illness and scored at least twice weekly based on the parameters as previously reported (Peraino et al. (2013), J. Immunol. Methods 398-399, 33-43, which is hereby incorporated by reference in its entirety; Wang et al., 2015). The animals were humanely euthanized when the score exceeded the limit or the animal lost more than 15% of its pre-injection body weight. In addition, to assess whether the fusion toxins are toxic to the animals, NSG mice injected with the fusion toxins only were also included as control.
In vivo efficacy of the mEGF-IT and bEGF-IT against HNSCC was assessed using three immunodeficient tumor-bearing NSG mouse models. The first in vivo efficacy model was a flank-xenograft solid tumor-bearing NSG mouse model. Eight million Cal27 tumor cells were injected subcutaneously (SQ) into the right flank at day 0. The EGF fusion toxins were injected intraperitoneally (IP) starting on day 4 at 50 μg/kg daily for 10 consecutive days. […] The reduction of the tumor volumes, weights and sizes (FIGS. 6B-6D) were all consistent with the median survival prolongation.

[5] = tested on: 14 human EGFR-positive HNSCC cell lines; assay: CellTiter-Glo in vitro efficacy, all examined HNSCC cell lines together; type: cell-based
Protocol: Cycloheximide (1.25 mg/mL) was used as a positive control. […] Data were from three individual experiments for each HNSCC cell line.
In vitro efficacy of the human EGF fusion toxins against HNSCC cell lines were assessed using CellTiter-Glo® Luminescent Cell Viability Assay.

[6] = tested on: EGFR+ HNSCC cell line, Cal27; assay: Blocking of anti-human EGFR mAb binding to Cal27 by nonbiotinylated fusion toxin (flow cytometry); conditions: nonbiotinylated fusion toxin as competitor
Excerpt: FIGS. 3C-D present representative data from analysis of the blocking of anti-human EGFR mAb binding to human EGFR-expressing (EGFR^+) HNSCC Cal27 by mEGF-IT and bEGF-IT using flow cytometry. FIG. 3C presents representative flow cytometry data, and FIG. 3D presents the percentage inhibition of anti-human EGFR mAb binding to Cal27 cells plotted versus the concentration of binding competitor (mono-EGF-IT or bi-EGF-IT). The data are representative of three individual experiments.
The biotinylated EGF fusion toxins also dose-dependently bound to all other examined HNSCC cell lines (FIG. 3, 11, and Table 4). […] One limitation to the flow cytometry binding assay is that the extent of biotinylation should be similar between the constructs. Otherwise, it could be hard to attribute the differences in fluorescence intensities to a change in affinity. To overcome this limitation, a blocking assay using nonbiotinylated mono-EGF-IT or bi-EGF-IT to block the binding of the anti-human EGFR mAb to the EGFR+ HNSCC cell line, Cal27, was performed (Wang et al, 2007, Bioconjug Chem 18: 944-955). […] The 14 examined HNSCC cell lines represent the main HNSCC cell lines used in the research community of the head and neck cancers.

Compound | IC50 [1] [nM] | IC50 [2] [nM] | IC50 [3] [nM] | Median survival time [4] [days] | in vitro efficacy against the examined HNSCC cell lines [5] | blocking of anti-human EGFR mAb binding to Cal27 (result in words) [6] | Median survival time ([4]; listed as bEGF-IT) [days] | decrease of tumor sizes and weights ([4]; flank xenograft, second cohort, day 14)
C#Cc1cccc(Nc2ncnc3cc(OCCOC)c(OCCOC)cc23)c1 [Erlotinib] | 2460 | 1740 | 4120 | >60 | effective in vitro against all 14 examined HNSCC tumor cell lines |  |  | 
Bi-EGF IT: DT390 joined by G4S to two human EGF domains linked by (G4S)3, C-terminal 6×His tag; SEQ ID NO: 10 |  |  |  | >60 |  | bound significantly stronger to Cal27 cells compared with mono-EGF-IT | 61 | about 80%
